Experimental data published in PMC9760738, “Pharmacokinetics, absorption, distribution, metabolism and excretion of the MEK inhibitor zapnometinib in rats” (Frontiers in Pharmacology, 2022).
Like-named read-outs stand apart in the source and are kept apart here.

How the values were obtained:
[1] = Plasma protein binding assay, human plasma; assay type: in vitro ADME; details: data not shown
[2] = from other nonclinical studies; cited from earlier work
[3] = Plasma protein binding assay, rat plasma; assay type: in vitro ADME; details: data not shown
[4] = Metabolite profiling of plasma extracts by radio-HPLC (Group 3); assay type: in vivo, rat; details: for concentration at 2 h / concentration at 8 h: rat, plasma, oral, 30 mg/kg, read-out: Concentration in plasma extract
Procedure: (§1) Metabolite profiling was performed by HPLC analysis according to the company’s SOP of plasma (Group 3), urine (Group 2) and feces (Group 2) samples. Briefly, for metabolite profiling and identification, radioactivity (cpm) was measured in HPLC eluent fractions that had previously been collected at 12 s intervals for the duration of the run (65 min) into 96-well Deep Well LumaPlates and dried in a centrifugal evaporator. A Microbeta2 scintillation counter was used to count each plate, with wells simultaneously counted for 2 min, after an initial 5 min delay. A subsample of plasma was analyzed (ca 2 ml) taken from individual animals to provide representative samples, for each sex, at 2, 8 and 168 h post dose (n = 6). Equal proportions of the total urine weight voided from Group 2 animals was pooled to provide representative samples for each sex at 0–6 h, 6–24 h and 24–48 h post dose (n = 6). Equal proportions of the total feces homogenate generated from the samples voided by the three rats (Group 2) were pooled to provide representative samples for each sex at 0–24 and 24–48 h post dose ([…]). Sample preparation was carried out due to the company’s SOPs (see Supplementary Methods). The extractability was ≥95.0% (95.0–100%) TRR (Total Radioactive Residue) for plasma and ≥88.3% (88.3%–91.3%) TRR for feces. As reference, a standard solution of zapnometinib (0.1 mg/ml in acetonitrile) was used. To assess HPLC method suitability, a column recovery was assessed on each representative sample (one per matrix). The recovery of radioactivity from the HPLC column was determined by collecting the column eluent, following an injection of a representative sample (one per matrix), and determining the radioactive content by submitting aliquots for LSC analysis. The results of these analyses were between 93.8%–105.1% column recoveries.
(§2) Next, radioactive metabolic components of zapnometinib in urine, plasma and feces extracts were isolated and profiled. The components were quantified by fraction collection/scintillation analysis, as appropriate to the radioactivity concentrations. Mass spectroscopy was used to propose identities of the major circulatory and excreted metabolites, and to correlate the metabolites detected in the different matrices. Components identified by LC-MS/MS were related to the quantified HPLC analysis by comparison of related radiochromatograms and comparison of elution order. Representative HPLC radiochromatograms of pooled feces extracts collected during 0–24 and 24–48 h post dose from male and female rats (which reveal the main metabolites) were qualitatively similar with some minor sex differences (Figure 3).

[5] = Metabolite profiling of pooled feces extracts by radio-HPLC (Group 2); assay type: in vivo, rat; details: for Proportion of feces sample radioactivity: 24-48 h
Procedure: as §1
as §2, with “3). […]” for “3).”
times with the following solvents following the same procedure: Extract 2 – Acetonitrile/methanol 4:1 (v/v); Extract 3 – Acetonitrile/Water 1:1 (v/v). Duplicate weighed aliquots of each supernatant (ca 0.1 mL) were mixed directly with Ultima Gold scintillation cocktail for measurement of radioactivity concentrations. The extracted residue was allowed to air dry and the total weight was recorded. Duplicate weighed portions (ca 0.05g) were taken for radioassay after oxidation. The extracts were combined and concentrated under a constant stream of nitrogen gas to near dryness and reconstituted in acetonitrile/0.1% aqueous formic acid, 1:1 (v/v) by vortex mixing, sonication and centrifugation at 10000 × g for 5 min at 4°C.
The concentrates were weighed, and duplicate weighed aliquots (0.025 – 0.05 mL) taken for measurement of radioactivity to calculate recovery following concentration. An aliquot of each concentrated extract was injected into the HPLC. […]
(100 mL) in purified water (600 mL) and methanol (300 mL). After measurement of total sample weight (as appropriate), replicate portions of diluted dose solutions (ca 0.1 mL), plasma (ca 0.05 – 0.25 mL), urine (ca 0.05 – 0.25 mL), expired air trap solution (ca 1 mL) and cage wash (ca 1 mL) were mixed directly with Ultima Gold scintillation cocktail (5 mL; 15 mL for […]

O=C(O)c1ccc(F)c(F)c1Nc1ccc(I)cc1Cl [zapnometinib, 2-(2-Chloro-4-iodophenylamino)-3,4-difluorobenzoic acid]
Protein binding [1]: high protein binding
Unbound fraction [1]: very low
No observed adverse effect level [2]: 100 mg/kg
Protein binding [3]: high protein binding
Unbound fraction [3]: very low
Proportion in plasma extract ([4]; 2 hours, female rats): 97.9 % sample
Proportion in plasma extract ([4]; 2 hours, male rats): 92.0 % sample
Proportion in plasma extract ([4]; 8 hours, female rats): 88.7 % sample
Proportion in plasma extract ([4]; 8 hours, male rats): 92.5 % sample
Extractability of plasma radioactivity ([4]; all measured time points): > 90 % TRR
Plasma concentration of unchanged zapnometinib ([4]; by 168 h post dose): below the limit of quantification
concentration at 2 h ([4]; 2 hours, female rats): 78400 ng/g
concentration at 2 h ([4]; 2 hours, male rats): 64400 ng/g
concentration at 8 h ([4]; 8 hours, female rats): 80700 ng/g
concentration at 8 h ([4]; 8 hours, male rats): 72100 ng/g
Amount in pooled feces extracts ([5]; 0-24 hours, female rats): 19.87 % Dose
Amount in pooled feces extracts ([5]; 0-24 hours, male rats): 19.28 % Dose
Proportion of feces sample radioactivity ([5]; female rats): 28.5 % sample radioactivity
Proportion of feces sample radioactivity ([5]; male rats): 21.5 % sample radioactivity
Amount in pooled feces extracts ([5]; 24-48 hours, female rats): 6.30 % Dose
Amount in pooled feces extracts ([5]; 24-48 hours, male rats): 2.15 % Dose
Amount in pooled feces extracts ([5]; Total (0-48 hours), female rats): 26.17 % Dose
